How the values were obtained:
[1] = test system: adult female Sprague-Dawley rats; assay: rat infusion study: pedal withdrawal reflex PWR = 1 (analgesic effect); format: in vivo; conditions: for minimal effective dose: Rattus norvegicus, iv; for minimal effective dose / PWR = 1 Dose: total drug administered to achieve PWR = 1, i.v. infusion; for PWR = 1 Dose, head-to-head ratio to ketamine / PWR = 1 Time, head-to-head ratio to ketamine: ratio compound/ketamine; for PWR = 1 Time: time from onset of i.v. infusion to PWR = 1
Method: (§1) All animal experiments were conducted at the Ruakura Research Centre, Hamilton, New Zealand, using experimental protocols reviewed and approved by the Ruakura Animal Ethics Committee (ethics ref 12604).
(§2) Following acquisition of baseline physiologic parameters (heart rate, respiratory rate, PWR, and righting reflex (RR)) adult female Sprague-Dawley rats of approximately 350-450 g were put under non-traumatic restraint and the marginal vein of the tail was cannulated. Ketamine or a compound of the invention at 10 mg/ml was administered via a minibore extension tube adequately secured to the tail. Infusions were commenced at a rate (weight-adjusted) to deliver 20 mg/kg/min initially (until the pedal withdrawal reflex score PWR=1), then were reduced to a rate of 6.7 mg/kg/min. Infusion rate was then titrated in an up-and-down fashion to maintain dorsal recumbency and a PWR=1 to 10 minutes before cessation. Three rats were used in each study, with each group of rats also acting as their own ketamine control. The order of study drug administration was determined by prior odds/evens randomisation with a recovery interval of at least one hour afforded between experiments. PWR and RR were recorded at 1 minute intervals throughout. The times from cessation of infusion to return of righting reflex (RRR), and from cessation of infusion to the animals displaying independent locomotion (walk) were recorded.
Pedal Withdrawal Reflex (PWR) Scoring:
Nociceptive testing in animals was conducted via 1 second application of constant pressure (firm digital pressure) over the forepaw of the animal. Pedal withdrawal reflex testing is primarily used to assess analgesic effect, and responses are graded accordingly: 0, absent; 1, flicker; 2, moderate withdrawal; 3, fast withdrawal; 4, Fast withdrawal with cry/preceding apnoea (modified from Buitrago, S. et al. J. Amer. Assoc. Lab. Animal. Sci. 2008, 47, 11-17).

[2] = test system: adult female Sprague-Dawley rats; assay: rat infusion study: loss/recovery of righting reflex and walk (anaesthetic effect); format: in vivo; conditions: for minimal effective dose: Rattus norvegicus, iv, read-out: LRR Dose; for minimal effective dose / LRR Dose: total drug administered to achieve loss of righting reflex, i.v. infusion; for LRR Dose, head-to-head ratio to ketamine / LRR Time, head-to-head ratio to ketamine / Walk Time, head-to-head ratio to ketamine / RRR Time, head-to-head ratio to ketamine: ratio compound/ketamine; for Walk Time: time from end of infusion to independent locomotion; for RRR Time: time from end of infusion to recovery of righting reflex; for LRR Time: time from onset of i.v. infusion to loss of righting reflex, 20 mg/kg/min initially
Method: as §1, §2
Loss of Righting Reflex (LRR):
This is primarily used to assess anaesthetic hypnotic effect. Righting reflex is judged absent when the rat fails to right from a position of dorsal recumbency to a position of sternal recumbency on three attempts performed in rapid succession. Dose to LRR is termed effective potency.

| Structure (SMILES) | minimal effective dose [1] [mg/kg] | PWR = 1 Dose, head-to-head ratio to ketamine [1] | PWR = 1 Time, head-to-head ratio to ketamine [1] | PWR = 1 Time [1] [s] | melting point [°C] | minimal effective dose [2] [mg/kg] | LRR Dose, head-to-head ratio to ketamine [2] | LRR Time, head-to-head ratio to ketamine [2] | Walk Time, head-to-head ratio to ketamine [2] | Walk Time [2] [s] | RRR Time [2] [s] | LRR Time [2] [s] | properties of racemate versus enantiomer (in words) ([2]; rat infusion study, discussion) | RRR Time, head-to-head ratio to ketamine [2] | recovery, fold faster than ketamine ([2]; after discontinuation of infusion) | potency (in words) ([2]; rat infusion study, discussion) | PWR = 1 Dose [1] [mg/kg] | LRR Dose [2] [mg/kg] | recovery (in words) ([2]; rat infusion study, discussion) |
| --- | --- | --- | --- | --- | --- | --- | --- | --- | --- | --- | --- | --- | --- | --- | --- | --- | --- | --- | --- |
| CC(C)OC(=O)CCN[C@@]1(c2ccccc2Cl)CCCCC1=O.Cl [(R)-C2iPr, (R)-Isopropyl 3-((1-(2-chlorophenyl)-2-oxocyclohexyl)amino)propanoate Hydrochloride] | 82 | 3.15 | 2.75 | 190 | 216 to 219 | 71 | 2.96 | 3.20 | 0.06 | 900 | 0 | 170 |  |  |  |  |  |  |  |
| COC(=O)CCCCNC1(c2ccccc2Cl)CCCCC1=O.Cl (racemic) [rac-C4Me, Rac-Methyl 5-((1-(2-chlorophenyl)-2-oxocyclohexyl)amino)pentanoate Hydrochloride] | 44 ± 10 | 2.00 | 1.53 | 124 ± 21 |  | 34 ± 7 | 1.70 | 1.31 | 0.086 | 126 ± 32 | 99 ± 16 | 92 ± 14 | broadly equivalent properties | 0.090 |  |  |  |  |  |
| CC(=O)OCCCN[C@]1(c2ccccc2Cl)CCCCC1=O.Cl [(S)-C3OAc, (S)-3-((1-(2-Chlorophenyl)-2-oxocyclohexyl)amino)propyl Acetate Hydrochloride] | 34 ± 1 | 1.10 | 1.12 | 104 ± 7 |  | 26 ± 3 | 1.30 | 1.37 | 0.51 | 983 ± 93 | 566 ± 30 | 81 ± 10 |  | 0.65 | 1.5-2 fold | about as potent as ketamine |  |  |  |
| CC(C)OC(=O)CCCCNC1(c2ccccc2Cl)CCCCC1=O.Cl (racemic) [rac-C4iPr, Isopropyl 5-((1-(2-chlorophenyl)-2-oxocyclohexyl)amino)pentanoate Hydrochloride] | 38 | 1.73 | 1.85 | 122 | 161 to 163 | 38 | 2.00 | 2.26 | 1.17 | 320 | 180 | 122 |  | 1.78 |  |  |  |  |  |
| CCCOC(=O)CCNC1(c2ccccc2Cl)CCCCC1=O.Cl (racemic) [rac-C2nPr, N-Propyl 3-((1-(2-chlorophenyl)-2-oxocyclohexyl)amino)propanoate Hydrochloride] |  | 6.48 | 6.67 | 420 ± 180 |  |  | 7.28 | 7.92 |  | 0 | 0 | 404 ± 196 |  |  |  |  | 136 ± 67 | 131 ± 62 |  |
| CC(C)OC(=O)CCNC1(c2ccccc2Cl)CCCCC1=O.Cl (racemic) [rac-C2iPr, Iso-Propyl 3-((1-(2-chlorophenyl)-2-oxocyclohexyl)amino)propanoate Hydrochloride] | 37 ± 6 | 1.54 | 1.79 | 127 ± 13 | 203 to 205 | 33 ± 6 | 1.50 | 1.66 | 0.14 | 153 ± 33 | 83 ± 19 | 103 ± 17 |  | 0.11 |  |  |  |  |  |
| CCOC(=O)CCCCNC1(c2ccccc2Cl)CCCCC1=O.Cl (racemic) [rac-C4Et, Rac-Ethyl 5-((1-(2-chlorophenyl)-2-oxocyclohexyl)amino)pentanoate hydrochloride] | 57 ± 12 | 2.48 | 2.26 | 172 ± 36 | 169 to 172 | 34 ± 4 | 2.00 | 1.73 | 0.05 | 158 ± 22 | 134 ± 22 | 97 ± 8 |  | 0.09 |  |  |  |  |  |
| COC(=O)CCCCN[C@]1(c2ccccc2Cl)CCCCC1=O.Cl [(S)-C4Me, (S)-Methyl 5-((1-(2-chlorophenyl)-2-oxocyclohexyl)amino)pentanoate Hydrochloride] |  | 1.76 | 1.81 |  |  |  | 1.80 | 1.94 | 0.51 |  |  |  | broadly equivalent properties | 0.07 |  |  |  |  |  |
| CCCOC(=O)CCCNC1(c2ccccc2Cl)CCCCC1=O.Cl (racemic) [rac-C3nPr, N-Propyl 4-((1-(2-chlorophenyl)-2-oxocyclohexyl)amino)butanoate Hydrochloride] |  | 7.46 | 6.64 | 558 ± 42 |  |  | 5.95 | 4.77 | 0.05 | 65 ± 33 | 10 ± 5.5 | 329 ± 106 |  | 0.012 |  |  | 209 ± 20 | 137 ± 48 |  |
| CC(=O)OCCCNC1(c2ccccc2Cl)CCCCC1=O.Cl (racemic) [rac-C3OAc, Rac-3-((1-(2-Chlorophenyl)-2-oxocyclohexyl)amino)propyl Acetate Hydrochloride] |  |  |  |  | 180 to 183 |  |  |  |  |  |  |  |  |  |  |  |  |  |  |
| CCOC(=O)CCN[C@]1(c2ccccc2Cl)CCCCC1=O.Cl [(S)-C2Et, (S)-Ethyl 3-((1-(2-chlorophenyl)-2-oxocyclohexyl)amino) propanoate Hydrochloride] |  | 2.38 | 2.53 | 185 ± 55 |  |  | 2.95 | 3.22 | 0.04 | 80 ± 8 | 62 ± 8 | 171 ± 54 |  | 0.05 |  | only half as potent | 62 ± 20 | 59 ± 19 | faster recoveries than the corresponding racemates |
| CCCOC(=O)CCCCNC1(c2ccccc2Cl)CCCCC1=O.Cl (racemic) [rac-C4nPr, N-Propyl 5-((1-(2-chlorophenyl)-2-oxocyclohexyl)amino)pentanoate Hydrochloride] |  | 3.19 | 3.60 | 277 ± 97 |  |  | 3.56 | 4.17 | 0.08 | 90 ± 30 | 45 ± 15 | 271 ± 97 |  | 0.05 |  |  | 83 ± 34 | 82 ± 34 |  |

Source: patent US10239825B2, “Ketamine derivatives” (Auckland Uniservices Limited, priority 2013, dated 2019)
